Reference: ChEMBL document CHEMBL1138342, “Dual inhibitors of inosine monophosphate dehydrogenase and histone deacetylases for cancer treatment” (J Med Chem, 2007)
Calls of active or inactive are those of the source. The calls are words filed in the database; no cut-off is given here.

Key:
[1] = target: Inosine-5'-monophosphate dehydrogenase 1 (Homo sapiens, UniProt P20839); assay: Inhibition of human IMPDH 1
[2] = target: Inosine-5'-monophosphate dehydrogenase 2 (Homo sapiens, UniProt P12268); assay: Inhibition of human IMPDH 2
[3] = tested on: K562; assay: Differentiation of K562 cells at 0.50 uM after 5 days by […]; assay type: functional, Homo sapiens
[4] = target: Histone deacetylase; assay type: protein assay, Homo sapiens
[5] = tested on: K562; assay: cells; assay type: functional, cell-based; conditions: Homo sapiens, K562, 72 h
[6] = tested on: K562; assay: Differentiation of K562 cells at 0.25 uM after 5 days by […]; assay type: functional, Homo sapiens
[7] = tested on: K562; assay: Differentiation of K562 cells at 0.005 uM after 5 days by […]; assay type: functional, Homo sapiens

Compound	Activity [1]	Activity [2]	Activity [3] [%]	Ki [1] [nM]	Ki [2] [nM]	IC50 [4] [nM]	IC50 [5] [nM]	Activity [6] [%]	Activity [7] [%]
O=C(CCCCCCC(=O)Nc1ccccc1)NO [VORINOSTAT]	inactive	inactive	47.4	–	–	–	–	–	–
COc1c(C)c2c(c(O)c1C/C=C(\C)CCC(=O)NO)C(=O)OC2 [MYCOPHENOLIC HYDROXAMIC ACID]	–	–	–	70	30	5000	4800	75	–
COc1c(C)c2c(c(O)c1C/C=C(\C)CCC(=O)O)C(=O)OC2 [MYCOPHENOLIC ACID]	–	–	–	–	–	–	–	46.4	–
COc1cc(NC(=O)CCCCCCC(=O)NO)ccc1-c1cnco1	–	–	–	5000	1700	60	290	–	87.8
COc1c(C)c2c(c(O)c1C/C=C(\C)CCC(=O)Nc1ccccc1N)C(=O)OC2	–	–	–	2830	650	> 100000	60000	–	–
COc1c(C)c2c(c(OC)c1C/C=C(\C)CCC(=O)NO)C(=O)OC2	inactive	inactive	–	–	–	14000	42300	–	–
COc1c(C)c2c(c(O)c1CCC(C)CCC(=O)NO)C(=O)OC2 (stereo not given)	–	–	–	2070	540	20100	44700	–	–
COc1c(C)c2c(c(O)c1C/C=C(\C)CCCC(=O)NO)C(=O)OC2	–	–	–	400	1100	10400	10800	–	–
